Values joined by “and” are separate entries in the source; they are usually repeats but may differ in a detail not shown here. Identical values can stand only once. “Also recorded” adds a separate entry of the source. Where a SMILES comes first, the peptide text is derived from it. Bridges are numbered along the chain shown (N, C = ends). [ ]: non-standard residue; d: D form. Ala(cPent) = N[C@@H](CC1CCCC1)C(=O)O; AllylGly = C=CC[C@H](N)C(=O)O

Series [1] concerns the target T1, hNTS1 receptor (Homo sapiens, UniProt P30989).
T1 construct: membranes prepared from them
In words: Competitive radioligand binding assay on the hNTS1 receptor. To be noted: IC50 NTS1, displacement of 125I-[Tyr3]-NT, membranes of CHO-K1 cells expressing hNTS1. The essentials: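 Membranes from CHO-K1 cells expressing hNTS1 (15 µg, […] ¹²⁵I-[Tyr³]-NT) or 1321N1 cells expressing hNTS2 (50 µg, […] radioligand) were incubated with analogues at 10⁻¹¹–10⁻⁴ M for 60 min at 25 °C in Tris-HCl pH 7.5/0.2% BSA. Filtration and γ-counting followed; nonspecific binding was defined with 10⁻⁵ M NT(8-13), and IC50 was obtained by one-site fit.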

The subject of series [2] is ileum. As to the kind of experiment: Ileum relaxation assay ex vivo. To be noted: 10^−11 to 10^−5 M, after contraction with carbachol. More on the design: species or system rat. The protocol:
The functional ileum bioassay was carried out as described in detail elsewhere. (Van der Poorten, O., Van Den Hauwe, R., Eiselt, E., Betti, C., Guillemyn, K., Chung, N. N., Hall, F., Bihel, F., Schiller, P. W., Tourwé, D., Sarret, P., Gendron, L, . . . Ballet, S. (2017). X-Space Screening of Dermorphin-Based Tetrapeptides through Use of Constrained Arylazepinone and Quinolinone Scaffolds. ACS medicinal chemistry letters, 8(11), 1177-1182) Briefly, rats were euthanized, and 2 cm ileum segments were dissected out before removal of extraneous fat and connective tissue.
The ileum was then mounted under 0.5-g tension in a 10 mL organ bath containing warmed (37° C.) and oxygenated (95% O2, 5% CO2) Krebs solution (6.9 g/L NaCl, 0.145 g/L MgSO4, 2.1 g/L NaHCO3, 0.35 g/L KCl, 0.165 g/L KH2PO4, 1.98 g/L dextrose and 0.28 g/L CaCl2)). […] Contractions of the muscle were recorded via an isometric force transducer (159901A, Radnoti, Monrovia, CA, USA). […]
Each concentration of the compounds tested were followed by 2×15-min washout periods in Krebs solution to allow full relaxation. Dose-response curves were obtained with NT (8-13) (10^−11 to 10^−6) as standard for each ileum and for compound 34(10^−11 to 10^−5) and IC50 values were determined. […]
Data are expressed as mean±standard errors of the mean (SEM). […]

T1 sequence (P30989 whole entry): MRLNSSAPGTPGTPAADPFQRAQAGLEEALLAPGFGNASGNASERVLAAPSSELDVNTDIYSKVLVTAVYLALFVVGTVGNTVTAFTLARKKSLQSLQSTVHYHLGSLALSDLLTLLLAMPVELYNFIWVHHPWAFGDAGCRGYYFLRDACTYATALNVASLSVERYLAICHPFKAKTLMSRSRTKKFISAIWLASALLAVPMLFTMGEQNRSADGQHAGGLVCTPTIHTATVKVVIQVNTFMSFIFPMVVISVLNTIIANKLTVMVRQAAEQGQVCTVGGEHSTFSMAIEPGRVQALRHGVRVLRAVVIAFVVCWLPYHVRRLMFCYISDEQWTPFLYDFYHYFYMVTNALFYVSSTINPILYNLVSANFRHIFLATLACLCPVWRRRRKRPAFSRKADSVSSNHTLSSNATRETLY

On to `NCCCC[C@@H]1NC(=O)[C@H](CCCCN)NC(=O)[C@@H](N)CC=CC[C@@H](C(=O)N[C@@H](Cc2ccc(O)cc2)C(=O)N[C@@H](CC2CCCC2)C(=O)O)NC1=O` [compound 67, c[G(All)KKG(All)]YA(cyclopentyl)] (H-[AllylGly]KK[AllylGly]Y[Ala(cPent)]-OH; staple 1-4), for which, in series [1], the IC50 was greater than 100 µM.

Consider `CC(C)C[C@H](NC(=O)[C@H](Cc1ccc(O)cc1)NC(=O)[C@@H]1CC=CC[C@H](N)C(=O)N[C@@H](CCCCN)C(=O)N[C@@H](CCCCN)C(=O)N1)C(=O)O` [compound 34, c[G(All)KKG(All)]YL] (H-[AllylGly]KK[AllylGly]YL-OH; staple 1-4), for which the Ileum relaxation result in series [2] was “doesn't impact gut motility; also recorded: No ileum”. Further, the IC50 in series [1] is 199 µM and 100 µM.

For orientation: IC50 means the concentration at which inhibition is half-maximal. A low value points to higher potency.

Values taken from patent US12358948B2, “Neurotensinergic agonists and methods of using same preventing or treating pain” (priority 2019, dated 2025).
